The nature of series [1]: pH of citric acid and acetic acid at varying concentrations. It is filed as physicochemical. The procedure:
Wipes were prepared as described in Example 1 above. Citric acid at concentrations of Oppm, 500 ppm, 1000 ppm, 2000 and 4000 ppm were separately applied to the Tencel® substrates along with Bardac 205 quaternary ammonium. The wipes were prepared in duplicate. The organic acid and quaternary ammonium chemicals were added to the textile simultaneously. The following is a table showing the pH of citric acid and acetic acid at varying concentrations: […]

Series [2] is described as follows: Squeeze method: expression of quaternary ammonium from treated Tencel wipes, quantified by HPLC. Particulars: Example 3, FIG. 4, citric acid 0, 500, 1000, 2000, 4000 ppm with Bardac 205 on Tencel, 24 hours soak. It is filed as physicochemical. The procedure:
Wipes were prepared as described in Example 1 above. […] The wipes were prepared in duplicate. The organic acid and quaternary ammonium chemicals were added to the textile simultaneously.

As to `CC(=O)O` [Acetic Acid, acetic acid], the pH in series [1] (concentration 10 ppm) turned out to be 2.69; in series [1] (concentration 50 ppm), 2.62; in series [1] (concentration 500 ppm), 2.56.
On to `O=C(O)CC(O)(CC(=O)O)C(=O)O` [Citric Acid, citric acid], for which the pH stood at 2.48 in series [1] (concentration 10 ppm), 2.58 in series [1] (concentration 50 ppm) and 2.65 in series [1] (concentration 500 ppm).
For the compound alkyl dimethyl benzyl ammonium chloride, the “release of dimethyl benzyl ammonium chloride from wipe” value in series [2] is on record as “As the citric acid concentration increased, the amount of quaternary ammonium released also increased”.

The values above are taken from US11723359B2, “Disposable antimicrobial wipes and methods of making” (Ecolab USA Inc., priority 2015, dated 2023).
